Source: patent US10987359B2, “Oxadiazepinone derivatives and methods of treating hepatitis B infections” (priority 2016, dated 2021)

Each compound was assayed on HBV (assay: HBV replication inhibition assay (BDNA assay) in HepG2.2.15 cells). Details: HBV replication assay (BDNA assay), HepG2.2.15 cells; read-out: DNA EC50.
Assay type: cell-based
How it was run: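 Supernatant encapsidated HBV DNA was measured by bDNA after DNase digestion and proteinase K release. Stably HBV-integrated HepG2.2.15 cells had two 3-day compound exposures (0.5% DMSO). Signals were background-subtracted and normalized to DMSO wells, and EC50 was obtained by four-parameter fit.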

`C[C@@H]1Cc2nn3c(c2CN1C(=O)Nc1cc(Cl)c(F)cc1F)C(=O)N(C)OC(COCC(F)F)C3` (stereo partly drawn) [Compound 127_D1, (45*,9R)—N-(5-chloro-2,4-difluorophenyl)-4-((2,2-difluoroethoxy)methyl)-2,9-dimethyl-1-oxo-1,4,5,8,9,11-hexahydropyrido[4′,3′:3,4]pyrazolo[5,1-d][1,2,5]oxadiazepine-10(2H)-carboxamide] gave an EC50 of 0.1 to 0.5 µM.

Same assay, conditions: Hepatitis B virus, HepG2.2.15, HBV replication assay (BDNA assay), HepG2.2.15 cells; read-out: DNA EC50

`C[C@@H]1Cc2nn3c(c2CN1C(=O)Nc1ccc(F)c(C(F)(F)F)c1)C(=O)N(C)OCC3` [Compound 076, (R)—N-(4-fluoro-3-(trifluoromethyl)phenyl)-2,9-dimethyl-1-oxo-1,4,5,8,9,11-hexahydropyrido[4′,3′:3,4]pyrazolo[5,1-d][1,2,5]oxadiazepine-10(2H)-carboxamide] and `C[C@@H]1Cc2nn3c(c2CN1C(=O)Nc1ccc(F)c(Br)c1)C(=O)N(C)OCC3` [Compound 077, (R)—N-(3-bromo-4-fluorophenyl)-2,9-dimethyl-1-oxo-1,4,5,8,9,11-hexahydropyrido[4′,3′:3,4]pyrazolo[5,1-d][1,2,5]oxadiazepine-10(2H)-carboxamide] fall in the same range of EC50: 0.001 to 0.1 µM for the first, 0.001 to 0.1 µM for the second.

`C[C@@H]1Cc2nn3c(c2CN1C(=O)Nc1ccnc(Br)c1F)C(=O)N(C)OCC3` [Compound 078, (R)—N-(2-bromo-3-fluoropyridin-4-yl)-2,9-dimethyl-1-oxo-1,4,5,8,9,11-hexahydropyrido[4′,3′:3,4]pyrazolo[5,1-d][1,2,5]oxadiazepine-10(2H)-carboxamide] and `Cc1cc(NC(=O)N2Cc3c(nn4c3C(=O)N(C)OCC4)C[C@H]2C)ccc1F` [Compound 080, (R)—N-(4-fluoro-3-methylphenyl)-2,9-dimethyl-1-oxo-1,4,5,8,9,11-hexahydropyrido[4′,3′:3,4]pyrazolo[5,1-d][1,2,5]oxadiazepine-10(2H)-carboxamide] fall in the same range of EC50: 0.001 to 0.1 µM for the first, 0.001 to 0.1 µM for the second.

`C[C@@H]1Cc2nn3c(c2CN1C(=O)Nc1ccc(F)c(C#N)c1)C(=O)N(C)OCC3` [Compound 079, (R)—N-(3-cyano-4-fluorophenyl)-2,9-dimethyl-1-oxo-1,4,5,8,9,11-hexahydropyrido[4′,3′:3,4]pyrazolo[5,1-d][1,2,5]oxadiazepine-10(2H)-carboxamide] and `C[C@@H]1Cc2nn3c(c2CN1C(=O)Nc1cc(F)c(F)c(Cl)c1)C(=O)N(C)OCC3` [Compound 081, (R)—N-(3-chloro-4,5-difluorophenyl)-2,9-dimethyl-1-oxo-1,4,5,8,9,11-hexahydropyrido[4′,3′:3,4]pyrazolo[5,1-d][1,2,5]oxadiazepine-10(2H)-carboxamide] fall in the same range of EC50: 0.001 to 0.1 µM for the first, 0.001 to 0.1 µM for the second.

`CCOCC1Cn2nc3c(c2C(=O)N(C)O1)CN(C(=O)Nc1ccc(F)c(Cl)c1)CC3` (centres unmarked) [Compound 101, N-(3-chloro-4-fluoro-phenyl)-4-(ethoxymethyl)-2-methyl-1-oxo-5,8,9,11-tetrahydro-4H-pyrido[2,3]pyrazolo[2,4-d][1,2,5]oxadiazepine-10-carboxamide] and `CCCOCC1Cn2nc3c(c2C(=O)N(C)O1)CN(C(=O)Nc1ccc(F)c(Cl)c1)CC3` (centres unmarked) [Compound 103, N-(3-chloro-4-fluoro-phenyl)-2-methyl-1-oxo-4-(propoxymethyl)-5,8,9,11-tetrahydro-4H-pyrido[2,3]pyrazolo[2,4-d][1,2,5]oxadiazepine-10-carboxamide] fall in the same range of EC50: 0.001 to 0.1 µM for the first, 0.001 to 0.1 µM for the second.

`C=CCOCC1Cn2nc3c(c2C(=O)N(C)O1)CN(C(=O)Nc1ccc(F)c(Cl)c1)CC3` (centres unmarked) [Compound 102, 4-(allyloxymethyl)-N-(3-chloro-4-fluoro-phenyl)-2-methyl-1-oxo-5,8,9,11-tetrahydro-4H-pyrido[2,3]pyrazolo[2,4-d][1,2,5]oxadiazepine-10-carboxamide] and `CN1OC(COCC(F)F)Cn2nc3c(c2C1=O)CN(C(=O)Nc1ccc(F)c(Cl)c1)CC3` (centres unmarked) [Compound 105, N-(3-chloro-4-fluoro-phenyl)-4-(2,2-difluoroethoxymethyl)-2-methyl-1-oxo-5,8,9,11-tetrahydro-4H-pyrido[2,3]pyrazolo[2,4-d][1,2,5]oxadiazepine-10-carboxamide] fall in the same range of EC50: 0.001 to 0.1 µM for the first, 0.001 to 0.1 µM for the second.

`CN1OC(COCC2CC2)Cn2nc3c(c2C1=O)CN(C(=O)Nc1ccc(F)c(Cl)c1)CC3` (centres unmarked) [Compound 104, N-(3-chloro-4-fluoro-phenyl)-4-(cyclopropylmethoxymethyl)-2-methyl-1-oxo-5,8,9,11-tetrahydro-4H-pyrido[2,3]pyrazolo[2,4-d][1,2,5]oxadiazepine-10-carboxamide] and `CN1OC(COCC(F)(F)F)Cn2nc3c(c2C1=O)CN(C(=O)Nc1ccc(F)c(Cl)c1)CC3` (centres unmarked) [Compound 106, N-(3-chloro-4-fluoro-phenyl)-2-methyl-1-oxo-4-(2,2,2-trifluoroethoxymethyl)-5,8,9,11-tetrahydro-4H-pyrido[2,3]pyrazolo[2,4-d][1,2,5]oxadiazepine-10-carboxamide] fall in the same range of EC50: 0.001 to 0.1 µM for the first, 0.001 to 0.1 µM for the second.

`[2H]C([2H])([2H])N1OC(CO)Cn2nc3c(c2C1=O)CN(C(=O)Nc1ccc(F)c(Cl)c1)CC3` (centres unmarked) [Compound 107, N-(3-chloro-4-fluoro-phenyl)-4-(hydroxymethyl)-1-oxo-2-(trideuteriomethyl)-5,8,9,11-tetrahydro-4H-pyrido[2,3]pyrazolo[2,4-d][1,2,5]oxadiazepine-10-carboxamide] and `CN1OC(CN)Cn2nc3c(c2C1=O)CN(C(=O)Nc1ccc(F)c(Cl)c1)CC3` (centres unmarked) [Compound 113, 4-(aminomethyl)-N-(3-chloro-4-fluoro-phenyl)-2-methyl-1-oxo-5,8,9,11-tetrahydro-4H-pyrido[2,3]pyrazolo[2,4-d][1,2,5]oxadiazepine-10-carboxamide] fall in the same range of EC50: 0.001 to 0.1 µM for the first, 0.001 to 0.1 µM for the second.

Compared with `CNC(=O)C1Cn2nc3c(c2C(=O)N(C)O1)CN(C(=O)Nc1ccc(F)c(Cl)c1F)CC3` (centres unmarked) [Compound 118, N10-(3-chloro-2,4-difluorophenyl)-N4,2-dimethyl-1-oxo-1,4,5,8,9,11-hexahydropyrido[4′,3′:3,4]pyrazolo[5,1-d][1,2,5]oxadiazepine-4,10(2H)-dicarboxamide], `CNC(=O)C1Cn2nc3c(c2C(=O)N(C)O1)CN(C(=O)Nc1cc(Cl)c(F)cc1F)CC3` (centres unmarked) [Compound 119, N10-(5-chloro-2,4-difluorophenyl)-N4,2-dimethyl-1-oxo-1,4,5,8,9,11-hexahydropyrido[4′,3′:3,4]pyrazolo[5,1-d][1,2,5]oxadiazepine-4,10(2H)-dicarboxamide] is higher in EC50: 0.001 to 0.1 µM for the first, 0.1 to 0.5 µM for the second.

Compared with `CNC(=O)C1Cn2nc3c(c2C(=O)N(C)O1)CN(C(=O)Nc1ccc(F)c(C#N)c1)CC3` (centres unmarked) [Compound 120, N10-(3-cyano-4-fluorophenyl)-N4,2-dimethyl-1-oxo-1,4,5,8,9,11-hexahydropyrido[4′,3′:3,4]pyrazolo[5,1-d][1,2,5]oxadiazepine-4,10(2H)-dicarboxamide], `CN1OC(COC(F)(F)F)Cn2nc3c(c2C1=O)CN(C(=O)Nc1ccc(F)c(Cl)c1)CC3` (centres unmarked) [Compound 128, N-(3-chloro-4-fluorophenyl)-2-methyl-1-oxo-4-((trifluoromethoxy)methyl)-1,4,5,8,9,11-hexahydropyrido[4′,3′:3,4]pyrazolo[5,1-d][1,2,5]oxadiazepine-10(2H)-carboxamide] is lower in EC50: 0.1 to 0.5 µM for the first, 0.001 to 0.1 µM for the second.

`CN1OC(CNS(=O)(=O)CC(F)(F)F)Cn2nc3c(c2C1=O)CN(C(=O)Nc1ccc(F)c(Cl)c1)CC3` (centres unmarked) [Compound 130, N-(3-chloro-4-fluorophenyl)-2-methyl-1-oxo-4-(((2,2,2-trifluoroethyl)sulfonamido)methyl)-1,4,5,8,9,11-hexahydropyrido[4′,3′:3,4]pyrazolo[5,1-d][1,2,5]oxadiazepine-10(2H)-carboxamide] was tested, and the EC50 was 0.001 to 0.1 µM.
